Data on one molecule can be found in ChEMBL document CHEMBL1152120, “RP 73163: A bioavailable alkylsulphinyl-diphenylimidazole ACAT inhibitor” (Bioorg Med Chem Lett, 1996).

Experiment [1] addresses T1, Acyl-CoA:cholesterol acyltransferase (Oryctolagus cuniculus, UniProt Q95214).
T1 sequence (Q95214 whole entry): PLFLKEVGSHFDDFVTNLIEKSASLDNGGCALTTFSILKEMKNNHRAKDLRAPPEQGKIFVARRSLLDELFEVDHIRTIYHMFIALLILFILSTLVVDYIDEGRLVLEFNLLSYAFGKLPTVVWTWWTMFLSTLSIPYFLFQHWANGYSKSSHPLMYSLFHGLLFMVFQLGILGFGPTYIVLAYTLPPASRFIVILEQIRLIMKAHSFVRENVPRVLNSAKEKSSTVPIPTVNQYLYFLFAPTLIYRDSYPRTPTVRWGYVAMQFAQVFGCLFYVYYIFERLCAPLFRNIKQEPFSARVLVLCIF
Kind of experiment: Compound was evaluated for inhibitory activity against Acyl coenzyme A:cholesterol acyltransferase in microsomes from rabbit adrenal.

The target of experiment [2] is T1, Acyl-CoA:cholesterol acyltransferase. In words: Compound was evaluated for inhibitory activity against Acyl coenzyme A:cholesterol acyltransferase in microsomes from rabbit artery.
Experiment [3] shares this target. In words: Compound was evaluated for inhibitory activity against Acyl coenzyme A:cholesterol acyltransferase in microsomes from rabbit intestine.
The target is the same in experiment [4]. In words: Compound was evaluated for inhibitory activity against Acyl coenzyme A:cholesterol acyltransferase in microsomes from rabbit liver.

For orientation: IC50 means the concentration that gives 50% inhibition. Read a high IC50 as weaker potency.

On to `Cc1cc(C)n(CCCCC[S+]([O-])c2nc(-c3ccccc3)c(-c3ccccc3)[nH]2)n1` (centres undefined), for which the IC50 is 208 nM in experiment [1], 245 nM in experiment [2], 370 nM in experiment [3] and 122 nM in experiment [4].
